Measurements published in patent US20190174748A1, “COMPOSITION FOR DELIVERY OF ACTIVE AGENTS TO AN ANIMAL” (priority 2015, published 2019).

Assays:
[1] = tested on: BALB/C mice; conditions: baits at 4% Warfarin activity
Source text: Experimental Methods: Ten-twelve week old female BALB/C mice are used. Mice are fed ad libitum. Each experimental group is housed in a separate cage.
The feed intake and kill effect on the mice are monitored.

[2] = tested on: Rodents; conditions: rodents ingesting baits; cited from earlier work
[3] = tested on: rats; conditions: 250-500 g rats, baits at 4% Warfarin activity
Source text: Experimental Methods: 250-500 g rats are used. Rats are fed ad libitum. Each experimental group is housed in a separate cage.
The feed intake and kill effect on the rats are monitored.

[4] = tested on: BALB/C mice; assay: Oral administration of OVA composition to mice: OVA specific IgG, IgA (ELISA) and ASC; format: in vivo; conditions: mice inoculated at 0 and 3 weeks, sampled at week 4
Method: Ovalbumin is orally administered to mice to test the efficacy of the inventive compositions in inducing an immune response.
Ovalbumin composition: Ovalbumin (1 mg/g of ovalbumin, Sigma, St. Louis, Mo.,) is incorporated into the inventive composition as described in Example 5. Three groups of 4 mice each are inoculated as follows: 1) ovalbumin (OVA) in the composition, administered orally, 2) OVA solution, administered subcutaneously (SC), 3) antigen free composition administered orally. Mice are inoculated at 0 and 3 weeks. Each dose administers a total 100 mg of dry composition mixed with corn oil at a ratio of 1:2 w/w of dry composition/oil, coated onto feed pellets. At week 4 each mouse is euthanized and serum and spleen cells are harvested.
Immunological assays: Serum is assayed for IgG and IgA by ELISA. ELISA is performed using OVA absorbed to polystyrene plates. Samples are placed in wells in triplicate at a 1:25 dilution for serum. Goat anti-mouse antibody conjugated with horse radish peroxidase is used, followed by an orthophenylenediamine substrate (Sigma, St. Louis, Mo., U.S.A.). Optical density of each well is determined by placing the plate in a microtiter plate spectrophotometer and reading the plate at 490 nm. Spleen cells are tested for antibody secreting cells (ASC) specific for OVA, using techniques described previously.

[5] = Degradation of unprotected OVA in simulated gastric fluid with 0.08% pepsin, pH 2; format: in vitro ADME; conditions: pH 2, 37° C.
Method: Western Blot: the compositions were lysed with RIPA buffer as described above, and a calculated amount equivalent to 12 μg of protein per sample was loaded on a 10% SDS-polyacrylamide gradient gel (SDS-PAGE, Bio-Rad, Hercules, Calif.). Proteins were transferred onto a PVDF membrane (Bio-Rad) and blocked for 1 h with 5% non-fat milk in PBS containing 0.5% Tween-20 (PBS-T). Blots were incubated with an appropriate primary antibody at 1:5000 dilutions for 1 h at room temperature. After washing with PBS-T (3×10 mL, 5 min. each), the membranes were incubated with an appropriate HRP-conjugated secondary antibody (EMD Millipore Corporation, Billerica, Mass., USA) at 1:5000 dilution for 1 h. After washing with PBS-T (3×10 mL, 5 min. each), chemiluminescent films were developed with an ECL substrate (Amsheram Biosciences).
To evaluate the loss of activity of a protein antigen following a typical gastric exposure, non-encapsulated OVA (10 mg) was incubated in 10 ml simulated gastric fluid containing 0.08% pepsin at pH-2 for 2 h at 37° C. on a shaker. Medium was withdrawn at 15 min, 30 min, 60 min and 120 min incubation times, and the amount of residual OVA was analyzed using Western Blot analysis as described above.

## CC(=O)CC(c1ccccc1)c1c(O)c2ccccc2oc1=O (stereo not shown) [Warfarin]
[1]
  kill effect after 8 h from feeding: all group 2 mice remain alive
[2]
  time to become unconscious: 1 to 2 h
  time to obvious symptoms of poisoning: 15 to 30 min
  time to recovery after sub lethal amount: ≤ 8 h
[3]
  kill effect after 8 h from feeding: all group 2 rats remain alive

## ovalbumin [non-encapsulated OVA, ovalbumin, model vaccine / protein antigen, unprotected]
[4]
  OVA specific serum IgA, IgG and ASC secreting cells: equally increased

B1: ovalbumin (protein, UniProt P01012 2-386, looked up)
Ovalbumin: GSIGAASMEFCFDVFKELKVHHANENIFYCPIAIMSALAMVYLGAKDSTRTQINKVVRFDKLPGFGDSIEAQCGTSVNVHSSLRDILNQITKPNDVYSFSLASRLYAEERYPILPEYLQCVKELYRGGLEPINFQTAADQARELINSWVESQTNGIIRNVLQPSSVDSQTAMVLVNAIVFKGLWEKAFKDEDTQAMPFRVTEQESKPVQMMYQIGLFRVASMASEKMKILELPFASGTMSMLVLLPDEVSGLEQLESIINFEKLTEWTSSNVMEERKIKVYLPRMKMEEKYNLTSVLMAMGITDVFSSSANLSGISSAESLKISQAVHAAHAEINEAGREVVGSAEAGVDAASVSEEFRADHPFLFCIKHIATNAVLFFGRCVSP
notes: ovalbumin, model vaccine / protein antigen, unprotected
[5]; 15 min in simulated gastric fluid, relative to pre-exposure activity
  Remaining activity (%): 61%
[5]; 30 min in simulated gastric fluid
  Remaining activity (%): 55%
[5]; 60 min in simulated gastric fluid
  Remaining activity (%): 38%
[5]; 120 min in simulated gastric fluid
  Remaining activity (%): 2%
